The record followed here is patent publication US20230382925A1, “MODULATORS OF CYSTIC FIBROSIS TRANSMEMBRANE CONDUCTANCE REGULATOR” (VERTEX PHARMACEUTICALS INCORPORATED, priority 2020, published 2023).

The conditions of series [1]: amide bond, 13-membered ring, DMF.
Series [2] has as its target CFTR (Homo sapiens, UniProt P13569). Briefly: Membrane Potential Dye, Enteroid Assay B. The format is cell-based. In a few lines:
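Human intestinal enteroid cells exposed to compound 18-24 h at 37 °C, then loaded with methyl oxonol membrane-potential dye plus CaCC blockers. Chloride transport triggered in chloride-free buffer with 10 μM forskolin, 100 μM IBMX, 300 nM Compound III; fluorescence read 15 min, expressed as % of triple-corrector/potentiator combination control.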

Series [3] addresses T1, CFTR (Homo sapiens, UniProt P13569, DEL508-508).
T1 construct: human bronchial epithelial (HBE) cells derived from CF subjects heterozygous for F508del; endogenous in cells; host or cells: primary human bronchial epithelial cells from CF subjects (F508del/MF-HBE)
Briefly: HBE assay: Ussing chamber assay of CFTR-mediated short-circuit currents (F508del/MF-HBE, with 1 μM Ivacaftor). Particulars: F508del/MF-HBE cells, 18-24 hours, 20% human serum; for EC50: range of concentrations with 1 μM Ivacaftor; for HBE Max Activity: with 1 μM Ivacaftor, compared to known Vertex corrector with 18 μM Tezacaftor and 1 μM Ivacaftor; for HBE Activity at 10 μM: single fixed concentration of 10 μM with 1 μM Ivacaftor. Format: cell-based. The method, then: 1. Ussing Chamber Assay of CFTR-mediated short-circuit currents
Ussing chamber experiments were performed using human bronchial epithelial (HBE) cells derived from CF subjects heterozygous for F508del and a minimal function CFTR mutation (F508del/MF-HBE) and cultured as previously described (Neuberger T, Burton B, Clark H, Van Goor F Methods Mol Biol 2011:741:39-54). After four days the apical media was removed, and the cells were grown at an air liquid interface for >14 days prior to use.
To isolate the CFTR-mediated short-circuit (ISC) current, F508del/MF-HBE grown on Costar® Snapwell™ cell culture inserts were mounted in an Ussing chamber and the transepithelial ISC was measured under voltage-clamp recording conditions (Vhold=0 mV) at 37° C. The basolateral solution contained (in mM) 145 NaCl, 0.83 K2HPO4, 3.3 KH2PO4, 1.2 MgCl2, 1.2 CaCl2), 10 Glucose, 10 HEPES (pH adjusted to 7.4 with NaOH) and the apical solution contained (in mM) 145 NaGluconate, 1.2 MgCl2, 1.2 CaCl2), 10 glucose, 10 HEPES (pH adjusted to 7.4 with NaOH) and 30 μM amiloride to block the epithelial sodium channel. Forskolin (20 μM) was added to the apical surface to activate CFTR, followed by apical addition of a CFTR inhibitor cocktail consisting of BPO, GlyH-101, and CFTR inhibitor 172 (each at 20 μM final assay concentration) to specifically isolate CFTR currents. The CFTR-mediated ISC (μA/cm^2) for each condition was determined from the peak forskolin response to the steady-state current following inhibition.
2. Identification of Corrector Compounds
The activity of the CFTR corrector compounds on the CFTR-mediated ISC was determined in Ussing chamber studies as described above. The F508del/MF-HBE cell cultures were either incubated with the corrector compounds at a range of concentrations in combination with 1 μM Ivacaftor or were incubated with the corrector compounds at a single fixed concentration of 10 μM in combination with 1 μM Ivacaftor for 18-24 hours at 37° C. and in the presence of 20% human serum. The concentration of corrector compounds with 1 μM Ivacaftor during the 18-24 hours incubations was kept constant throughout the Ussing chamber measurement of the CFTR-mediated ISC to ensure compounds were present throughout the entire experiment.

Molecules are shown by their SMILES. Values joined by “and” are separate entries in the source; they are usually repeats but may differ in a detail not shown here. Equal values may be shown once. Read-outs that look alike come from different tables or passages of the source.

The EC50 is the concentration needed to bring the measured effect to its halfway point.

T1 sequence (P13569 with tags, fused parts or gaps DEL508-508): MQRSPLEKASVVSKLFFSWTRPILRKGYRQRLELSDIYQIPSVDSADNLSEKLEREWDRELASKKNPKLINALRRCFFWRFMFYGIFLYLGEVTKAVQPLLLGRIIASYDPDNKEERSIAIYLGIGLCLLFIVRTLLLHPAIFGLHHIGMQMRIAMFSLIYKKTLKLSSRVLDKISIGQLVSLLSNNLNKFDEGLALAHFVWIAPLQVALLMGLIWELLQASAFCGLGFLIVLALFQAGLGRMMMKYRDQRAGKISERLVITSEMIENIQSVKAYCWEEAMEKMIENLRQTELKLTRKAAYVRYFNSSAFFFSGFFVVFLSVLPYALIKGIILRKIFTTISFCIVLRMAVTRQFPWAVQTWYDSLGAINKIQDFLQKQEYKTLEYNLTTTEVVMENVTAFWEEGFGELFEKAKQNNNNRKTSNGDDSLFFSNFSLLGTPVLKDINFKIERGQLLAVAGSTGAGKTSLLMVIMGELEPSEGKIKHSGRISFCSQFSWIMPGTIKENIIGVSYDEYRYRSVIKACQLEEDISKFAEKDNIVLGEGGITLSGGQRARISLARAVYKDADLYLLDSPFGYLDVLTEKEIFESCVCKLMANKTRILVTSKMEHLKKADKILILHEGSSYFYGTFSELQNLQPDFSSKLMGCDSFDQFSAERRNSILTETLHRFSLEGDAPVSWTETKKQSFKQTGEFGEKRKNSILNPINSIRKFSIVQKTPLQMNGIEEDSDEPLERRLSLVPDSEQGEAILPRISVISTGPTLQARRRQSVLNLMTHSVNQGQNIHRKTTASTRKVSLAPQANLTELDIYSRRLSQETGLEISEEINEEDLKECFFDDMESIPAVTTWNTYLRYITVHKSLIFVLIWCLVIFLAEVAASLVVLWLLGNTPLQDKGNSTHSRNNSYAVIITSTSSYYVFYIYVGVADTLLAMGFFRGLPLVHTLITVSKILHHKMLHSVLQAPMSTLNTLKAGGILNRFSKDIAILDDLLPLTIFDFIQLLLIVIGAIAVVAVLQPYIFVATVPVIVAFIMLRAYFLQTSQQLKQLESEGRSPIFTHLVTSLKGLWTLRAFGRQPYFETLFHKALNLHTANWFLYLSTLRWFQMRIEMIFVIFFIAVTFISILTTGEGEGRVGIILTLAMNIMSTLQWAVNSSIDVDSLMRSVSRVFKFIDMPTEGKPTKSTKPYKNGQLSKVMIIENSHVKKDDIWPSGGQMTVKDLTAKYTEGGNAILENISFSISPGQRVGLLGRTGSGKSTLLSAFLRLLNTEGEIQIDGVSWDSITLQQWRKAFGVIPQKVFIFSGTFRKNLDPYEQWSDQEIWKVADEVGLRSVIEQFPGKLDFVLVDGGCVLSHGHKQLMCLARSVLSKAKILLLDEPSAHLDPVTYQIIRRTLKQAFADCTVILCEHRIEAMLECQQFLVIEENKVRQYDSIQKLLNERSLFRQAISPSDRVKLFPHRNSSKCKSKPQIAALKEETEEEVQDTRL
Chain of CFTR (Homo sapiens, UniProt P13569) (P13569 with tags, fused parts or gaps DEL508-508): as above

With `Cc1cccc(C)c1-c1cc2nc(n1)NS(=O)(=O)c1cccc(c1)C(=O)N(C1Cc3ccccc3C1)[C@H](CC(C)(C)C)CO2` [Compound 183, (11R)-6-(2,6-Dimethylphenyl)-11-(2,2-dimethylpropyl)-12-indan-2-yl-2,2-dioxo-9-oxa-2λ^6-thia-3,5,12,19-tetrazatricyclo[12.3.1.14,8]nonadeca-1(18),4(19),5,7,14,16-hexaen-13-one], the ring closure, yield after HPLC in series [1] (from Cc1cccc(C)c1-c1cc(OC[C@@H](CC(C)(C)C)NC2Cc3ccccc3C2)nc(NS(=O)(=O)c2cccc(C(=O)O)c2)n1, CDMT/NMM, 25.7 mM, 24.0 h) worked out at 13%. For the same compound, the “Ent. B Max Activity (%)” value in series [2] (Table 10) was “+++ (+++ is >60%)”. Besides, the EC50 in series [2] (Table 10, read-out: Ent. B EC50) is less than 1000 nM.

With `COC(=O)C1CC2(C1)CC(N1C(=O)c3cccc(c3)S(=O)(=O)Nc3nc(cc(-c4c(C)cccc4C)n3)OC[C@H]1CC1(C(F)(F)F)CC1)C2` (stereo partly shown), the ring closure, yield after HPLC in series [1] (from COC(=O)C1CC2(CC(N[C@@H](COc3cc(-c4c(C)cccc4C)nc(NS(=O)(=O)c4cccc(C(=O)O)c4)n3)CC3(C(F)(F)F)CC3)C2)C1, HATU/TEA, 25.0 °C, 16.0 h, 2 steps) was 32%.

Consider `Cc1cccc(C)c1-c1cc2nc(n1)NS(=O)(=O)c1cccc(c1)C(=O)N(C1CCC1C1CC1)[C@H](CC(C)(C)C)CO2` (stereo partly shown), for which the ring closure, yield after HPLC in series [1] (from Cc1cccc(C)c1-c1cc(OC[C@@H](CC(C)(C)C)NC2CCC2C2CC2)nc(NS(=O)(=O)c2cccc(C(=O)O)c2)n1, CDMT/NMM, 25.0 °C, 2 steps) is 2%.

In series [1] (from Cc1cccc(C)c1-c1cc(OC[C@@H](CC(C)C)NC2CC(CO)C2)nc(NS(=O)(=O)c2cccc(C(=O)O)c2)n1, HATU/DIPEA, 32.3 mM, 1.0 h), `Cc1cccc(C)c1-c1cc2nc(n1)NS(=O)(=O)c1cccc(c1)C(=O)N(C1CC(CO)C1)[C@H](CC(C)C)CO2` (stereo partly shown) displayed a ring closure, yield after HPLC of 11%.

The compound `COC1C[C@@H]2CC(N3C(=O)c4cccc(c4)S(=O)(=O)Nc4nc(cc(-c5c(C)cccc5C)n4)OC[C@H]3CC(C)C)C[C@@H]2C1` (stereo partly shown) yielded a ring closure, yield after HPLC in series [1] (from COC1C[C@H]2CC(N[C@@H](COc3cc(-c4c(C)cccc4C)nc(NS(=O)(=O)c4cccc(C(=O)O)c4)n3)CC(C)C)C[C@H]2C1, COMU/DIEA, 29.7 mM, 14.0 h) of 30%.

As for `Cc1cccc(C)c1-c1cc2nc(n1)NS(=O)(=O)c1cccc(c1)C(=O)N(C1CC(NC(=O)OC(C)(C)C)C1)[C@H](CC(C)C)CO2` (stereo partly shown), the ring closure, yield after HPLC in series [1] (from Cc1cccc(C)c1-c1cc(OC[C@@H](CC(C)C)NC2CC(NC(=O)OC(C)(C)C)C2)nc(NS(=O)(=O)c2cccc(C(=O)O)c2)n1, HATU/DIPEA, 22.4 mM, 6.0 h, 2 steps) was 7% and 6%.

With `Cc1cccc(C)c1-c1cc2nc(n1)NS(=O)(=O)c1cccc(c1)C(=O)N(C1CN(C(=O)OC(C)(C)C)C(C)(C)C1)[C@H](CC(C)C)CO2` (stereo partly shown), the ring closure, yield after HPLC in series [1] (from Cc1cccc(C)c1-c1cc(OC[C@@H](CC(C)C)NC2CN(C(=O)OC(C)(C)C)C(C)(C)C2)nc(NS(=O)(=O)c2cccc(C(=O)O)c2)n1, COMU/DIEA, 2 steps) was 8% and 4%.

`Cc1cccc(C)c1-c1cc2nc(n1)NS(=O)(=O)c1cccc(c1)C(=O)N(C1CC(CNC(=O)OC(C)(C)C)C1)[C@H](CC(C)C)CO2` (stereo partly shown): the ring closure, yield after HPLC in series [1] (from Cc1cccc(C)c1-c1cc(OC[C@@H](CC(C)C)NC2CC(CNC(=O)OC(C)(C)C)C2)nc(NS(=O)(=O)c2cccc(C(=O)O)c2)n1, HATU/DIEA, 7.0 h, 2 steps) was 15% and 19%.

On to `Cc1cccc(C)c1-c1cc2nc(n1)NS(=O)(=O)c1cccc(c1)C(=O)N(C1CC(C(=O)OC(C)(C)C)C1)[C@H](CC(C)C)CO2` (stereo partly shown), for which, in series [1] (from Cc1cccc(C)c1-c1cc(OC[C@@H](CC(C)C)NC2CC(C(=O)OC(C)(C)C)C2)nc(NS(=O)(=O)c2cccc(C(=O)O)c2)n1, HATU/DIEA, 16.0 h, 2 steps), the ring closure, yield after HPLC stood at 79%.

Consider `Cc1cccc(C)c1-c1cc2nc(n1)NS(=O)(=O)c1cccc(c1)C(=O)N(C1CC(OC(C)C)C1)[C@H](CC1(C(F)(F)F)CC1)CO2` (stereo partly shown), for which the ring closure, yield after HPLC in series [1] (from Cc1cccc(C)c1-c1cc(OC[C@@H](CC2(C(F)(F)F)CC2)NC2CC(OC(C)C)C2)nc(NS(=O)(=O)c2cccc(C(=O)O)c2)n1, HATU/TEA, 44.0 mM, 16.0 h) worked out at 18%.

As for `Cc1cccc(C)c1-c1cc2nc(n1)NS(=O)(=O)c1cccc(c1)C(=O)N([C@H]1C[C@@]3(C[C@H](NCCC(F)(F)F)C3)C1)[C@H](CC1(C(F)(F)F)CC1)CO2` (stereo partly shown) [Compound 218], in series [3], the half-maximal effective concentration (EC50) was less than 1000 nM and the “HBE Max Activity” value is “+++ (+++ is >60%)”.

On to `Cc1cccc(C)c1-c1cc2nc(n1)NS(=O)(=O)c1cccc(c1)C(=O)N(C1CC3(CCCN3C(=O)CO)C1)[C@H](CC(C)(C)C)CO2` (stereo in doubt) [Compound 205], for which, in series [3], the EC50 was less than 1000 nM and the “HBE Max Activity” value is “+++ (+++ is >60%)”.

The compound `Cc1cccc(C)c1-c1cc2nc(n1)NS(=O)(=O)c1cccc(c1)C(=O)N(C1CC3(CC3)C1)C(CC(F)(F)F)CO2` (stereo not shown) yielded a ring closure, yield after HPLC in series [1] (from Cc1cccc(C)c1-c1cc(OCC(CC(F)(F)F)NC2CC3(CC3)C2)nc(NS(=O)(=O)c2cccc(C(=O)O)c2)n1, HATU/TEA, 18.3 mM, 18.0 h) of 15%.

For the compound `Cc1cccc(C)c1-c1cc2nc(n1)NS(=O)(=O)c1cccc(c1)C(=O)N(C1CC3(CCCCN3C(=O)CO)C1)[C@H](CC(C)(C)C)CO2` (stereo in doubt) [Compound 203], the “HBE Activity at 10 μM” value in series [3] is given as “+++ (+++ is >60%)”.

Take `Cc1cccc(C)c1-c1cc2nc(n1)NS(=O)(=O)c1cccc(c1)C(=O)N(C1CC3(CCCN3C(=O)CO)C1)[C@H](CC(C)(C)C)CO2` (stereo in doubt) [Compound 206]: in series [3], the concentration giving a half-maximal response (EC50) is less than 1000 nM and the “HBE Max Activity” value is reported as “+++ (+++ is >60%)”.

For the compound `Cc1cccc(CO)c1-c1cc2nc(n1)NS(=O)(=O)c1cccc(c1)C(=O)N([C@H]1CC3(C[C@H](NC(=O)OC(C)C)C3)C1)[C@H](CC(C)(C)C)CO2` (stereo in doubt) [Compound 403], the “HBE Activity at 10 μM” value in series [3] is listed as “++ (++ is 30-60%)”.

In the case of `Cc1cccc(C)c1-c1cc2nc(n1)NS(=O)(=O)c1cccc(n1)C(=O)N(C1CC3(C1)CC(C(C)(C)O)C3)[C@H](CC(C)(C)C)CO2` (stereo partly shown), in series [1] (from Cc1cccc(C)c1-c1cc(OC[C@@H](CC(C)(C)C)NC2CC3(C2)CC(C(C)(C)O)C3)nc(NS(=O)(=O)c2cccc(C(=O)O)n2)n1, HATU/DIEA, 26.7 mM, 25.0 °C, 17.0 h), the ring closure, yield after HPLC came out at 28%.

Regarding `Cc1cccc(C)c1-c1cc2nc(n1)NS(=O)(=O)c1cccc(c1)C(=O)N([C@H]1C[C@@]3(CCCN(C(=O)CO)C3)C1)[C@H](CC(C)(C)C)CO2` (single isomer, unassigned) [Compound 145], in series [3], the concentration for a half-maximal effect (EC50) is less than 1000 nM and the “HBE Max Activity” value was “+++ (+++ is >60%)”.

In series [1] (from Cc1cccc(C)c1-c1cc(OC[C@@H](CC(C)C)NC2CC3(CCN(C(=O)OC(C)(C)C)CC3)C2)cc(NS(=O)(=O)c2cccc(C(=O)O)c2)n1, HATU/DIEA, 34.7 mM, 14.0 h), `Cc1cccc(C)c1-c1cc2cc(n1)NS(=O)(=O)c1cccc(c1)C(=O)N(C1CC3(CCN(C(=O)OC(C)(C)C)CC3)C1)[C@H](CC(C)C)CO2` yielded a ring closure, yield after HPLC of 16%.

As to `Cc1cccc(C)c1-c1cc2nc(n1)NS(=O)(=O)c1cccc(c1)C(=O)N([C@H]1C[C@@]3(C[C@H](NCC(F)(F)F)C3)C1)[C@H](CC1(C(F)(F)F)CC1)CO2` (stereo in doubt) [Compound 220], in series [3], the EC50 was less than 1000 nM and the “HBE Max Activity” value is reported as “+++ (+++ is >60%)”.

`Cc1cccc(C)c1-c1cc2nc(n1)NS(=O)(=O)c1cccc(c1)C(=O)N([C@H]1CC3(C[C@H](N(C)CCC(F)(F)F)C3)C1)[C@H](CC1(C(F)(F)F)CC1)CO2` (stereo in doubt) [Compound 219]: the “HBE Activity at 10 μM” value in series [3] was “+++ (+++ is >60%)”.
